Where “and” joins values, the source holds several entries; their conditions need not be identical. Equal values may be shown once. Inconclusive results and toxic doses are left out.
Test system: BDF1 mice, P388 leukemia ip, median survival T/C
Experiment: NCI In Vivo Anticancer Drug Screen. Data for tumor model P388 Leukemia (intraperitoneal) in B6D2F1 (BDF1) mice
Conditions: endpoint: median survival time, higher = longer survival
Outline: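 Read-out is survival of treated animals expressed relative to the vehicle group, as a T/C ratio.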

[1] = dose: 100.0 mg/kg/injection, schedule: Q01DX009 (ip), vehicle: saline
[2] = dose: 200.0 mg/kg/injection, schedule: Q01DX009 (ip), vehicle: saline
[3] = dose: 50.0 mg/kg/injection, schedule: Q04DX003 (ip), vehicle: Klucel (hydroxypropylcellulose) (HPC)
[4] = dose: 100.0 mg/kg/injection, schedule: Q04DX003 (ip), vehicle: Klucel (hydroxypropylcellulose) (HPC)
[5] = dose: 200.0 mg/kg/injection, schedule: Q04DX003 (ip), vehicle: Klucel (hydroxypropylcellulose) (HPC)
[6] = dose: 50.0 mg/kg/injection, schedule: Q01DX009 (ip), vehicle: saline
[7] = dose: 50.0 mg/kg/injection, schedule: Q01DX009 (ip), vehicle: saline with Tween-80
[8] = dose: 100.0 mg/kg/injection, schedule: Q01DX009 (ip), vehicle: saline with Tween-80
[9] = dose: 200.0 mg/kg/injection, schedule: Q01DX009 (ip), vehicle: saline with Tween-80
[10] = dose: 12.5 mg/kg/injection, schedule: Q01DX009 (ip), vehicle: saline with Tween-80
[11] = dose: 25.0 mg/kg/injection, schedule: Q01DX009 (ip), vehicle: saline with Tween-80
[12] = dose: 100.0 mg/kg/injection, schedule: Q01DX001 (ip), vehicle: saline
[13] = dose: 200.0 mg/kg/injection, schedule: Q01DX001 (ip), vehicle: saline

## O=C(Nc1ccc(NC2=NCCN2)cc1)c1ccc(C(=O)Nc2ccc(NC3=NCCN3)cc2)cc1
dose: 2.0 mg/kg/injection, schedule: Q01DX010 (ip), vehicle: saline
  T/C: 165 % of control and 180 % of control
dose: 4.0 mg/kg/injection, schedule: Q01DX010 (ip), vehicle: saline
  T/C: 260 % of control and 205 % of control
dose: 8.0 mg/kg/injection, schedule: Q01DX010 (ip), vehicle: saline
  T/C: 260 % of control and 285 % of control
dose: 16.0 mg/kg/injection, schedule: Q01DX010 (ip), vehicle: saline
  T/C: 105 % of control and 110 % of control

## CC(C)N1c2c(nc(N)[nH]c2=O)NCC1CNc1ccc(C(=O)NC(CCC(=O)O)C(=O)O)cc1 (stereo unspecified)
[1]
  T/C: 105 % of control
dose: 150.0 mg/kg/injection, schedule: Q01DX009 (ip), vehicle: saline
  T/C: 90 % of control
[2]
  T/C: 97 % of control
dose: 300.0 mg/kg/injection, schedule: Q01DX009 (ip), vehicle: saline
  T/C: 93 % of control
dose: 400.0 mg/kg/injection, schedule: Q01DX009 (ip), vehicle: saline
  T/C: 110 % of control

## Cc1c(N)nc(=S)[nH]c1C(=O)O
[3]
  T/C: 113 % of control
dose: 100.0 mg/kg/injection, schedule: Q01DX001 (ip), vehicle: Klucel (hydroxypropylcellulose) (HPC)
  T/C: 109 % of control
[4]
  T/C: 100 % of control
dose: 200.0 mg/kg/injection, schedule: Q01DX001 (ip), vehicle: Klucel (hydroxypropylcellulose) (HPC)
  T/C: 109 % of control
[5]
  T/C: 100 % of control
dose: 400.0 mg/kg/injection, schedule: Q01DX001 (ip), vehicle: Klucel (hydroxypropylcellulose) (HPC)
  T/C: 104 % of control

## CC1C[N-]CC(C)C1.CC1C[N-]CC(C)C1.[Cl][Pt+2]([Cl])([Cl])[Cl] (stereo unspecified)
dose: 1.56 mg/kg/injection, schedule: Q01DX009 (ip), vehicle: saline
  T/C: 95 % of control
dose: 3.12 mg/kg/injection, schedule: Q01DX009 (ip), vehicle: saline
  T/C: 114 % of control
dose: 6.25 mg/kg/injection, schedule: Q01DX009 (ip), vehicle: saline
  T/C: 93 % of control
dose: 12.5 mg/kg/injection, schedule: Q01DX009 (ip), vehicle: saline
  T/C: 114 % of control
[6]
  T/C: 107 % of control

## CNc1ccc(/C=C2\C=Cc3ccccc32)cc1
dose: 12.0 mg/kg/injection, schedule: Q01DX009 (ip), vehicle: Klucel (hydroxypropylcellulose) (HPC)
  T/C: 118 % of control
dose: 12.0 mg/kg/injection, schedule: Q01DX009 (ip), vehicle: gum acacia
  T/C: 107 % of control
dose: 12.5 mg/kg/injection, schedule: Q04DX003 (ip), vehicle: gum acacia
  T/C: 103 % of control
dose: 25.0 mg/kg/injection, schedule: Q01DX009 (ip), vehicle: Klucel (hydroxypropylcellulose) (HPC)
  T/C: 100 % of control
dose: 25.0 mg/kg/injection, schedule: Q01DX009 (ip), vehicle: gum acacia
  T/C: 103 % of control
dose: 25.0 mg/kg/injection, schedule: Q04DX003 (ip), vehicle: Klucel (hydroxypropylcellulose) (HPC)
  T/C: 104 % of control
dose: 25.0 mg/kg/injection, schedule: Q04DX003 (ip), vehicle: gum acacia
  T/C: 100 % of control
dose: 50.0 mg/kg/injection, schedule: Q01DX009 (ip), vehicle: Klucel (hydroxypropylcellulose) (HPC)
  T/C: 90 % of control
dose: 50.0 mg/kg/injection, schedule: Q01DX009 (ip), vehicle: gum acacia
  T/C: 92 % of control
[3]
  T/C: 100 % of control
dose: 50.0 mg/kg/injection, schedule: Q04DX003 (ip), vehicle: gum acacia
  T/C: 103 % of control
[4]
  T/C: 86 % of control and 95 % of control

## Cc1[nH]c(N)nc(=S)c1CCC(=O)Nc1ccc(C(=O)NC(CCC(=O)O)C(=O)O)cc1 (stereo unspecified)
[7]
  T/C: 91 % of control
[8]
  T/C: 99 % of control
[9]
  T/C: 101 % of control
dose: 400.0 mg/kg/injection, schedule: Q01DX009 (ip), vehicle: saline with Tween-80
  T/C: 106 % of control

## CC1(C)C2CC=C(C[P+](c3ccccc3)(c3ccccc3)c3ccccc3)C1C2 (stereo unspecified)
dose: 3.3 mg/kg/injection, schedule: Q01DX009 (ip), vehicle: saline sonified
  T/C: 120 % of control

## CC1(C)S[C@@H]2[C@H](NC(=O)CCC[C@@H](N)C(=O)O)C(=O)N2[C@H]1C(=O)O
dose: 23.0 mg/kg/injection, schedule: Q01DX009 (ip), vehicle: saline
  T/C: 99 % of control
dose: 47.0 mg/kg/injection, schedule: Q01DX009 (ip), vehicle: saline
  T/C: 106 % of control
dose: 94.0 mg/kg/injection, schedule: Q01DX009 (ip), vehicle: saline
  T/C: 107 % of control and 117 % of control and 120 % of control
dose: 188.0 mg/kg/injection, schedule: Q01DX009 (ip), vehicle: saline
  T/C: 102 % of control and 104 % of control and 106 % of control
dose: 750.0 mg/kg/injection, schedule: Q01DX009 (ip), vehicle: saline
  T/C: 95 % of control and 102 % of control

## CC12CCC3c4ccc(OP(=O)(N5CC5)N5CC5)cc4CCC3C1CCC2O (stereo unspecified)
[10]
  T/C: 102 % of control
[11]
  T/C: 93 % of control
[7]
  T/C: 121 % of control
[8]
  T/C: 121 % of control

## CC1OC(OC2C(CO)OC(O[C@H]3CC[C@@]4(C)C(=CC[C@H]5[C@@H]6C[C@@H]7O[C@@]8(CC[C@H](C)CN8)[C@@H](C)[C@@H]7[C@@]6(C)CC[C@@H]54)C3)C(OC3OC(C)C(O)C(O)C3O)C2O)C(O)C(O)C1O (stereo partly specified)
dose: 2.5 mg/kg/injection, schedule: Q01DX009 (ip), vehicle: water
  T/C: 95 % of control and 100 % of control
dose: 5.0 mg/kg/injection, schedule: Q01DX009 (ip), vehicle: water
  T/C: 109 % of control
dose: 10.0 mg/kg/injection, schedule: Q01DX009 (ip), vehicle: water
  T/C: 100 % of control and 104 % of control
dose: 20.0 mg/kg/injection, schedule: Q01DX009 (ip), vehicle: water
  T/C: 95 % of control and 100 % of control

## O=C(c1ccccc1)N1CCC2OC2C1 (stereo unspecified)
[6]
  T/C: 94 % of control
[1]
  T/C: 109 % of control
[2]
  T/C: 100 % of control

## O=[N+]([O-])c1ccc(S(=O)(=O)c2ccccc2)c2nonc12
[11]
  T/C: 107 % of control
[7]
  T/C: 98 % of control

## O=C(/C=C\c1ccc(O)c(O)c1)OC1C(O)CC(OC(=O)/C=C/c2ccc(O)c(O)c2)(C(=O)O)CC1O (stereo unspecified)
[12]
  T/C: 95 % of control
[4]
  T/C: 100 % of control
[13]
  T/C: 95 % of control
[5]
  T/C: 100 % of control
dose: 400.0 mg/kg/injection, schedule: Q01DX001 (ip), vehicle: saline
  T/C: 95 % of control
dose: 400.0 mg/kg/injection, schedule: Q04DX003 (ip), vehicle: Klucel (hydroxypropylcellulose) (HPC)
  T/C: 95 % of control

## CCOC(=O)C1CN(Cc2ccccc2)CCC1=O (stereo unspecified)
dose: 50.0 mg/kg/injection, schedule: Q01DX001 (ip), vehicle: saline
  T/C: 104 % of control
[12]
  T/C: 95 % of control
[13]
  T/C: 90 % of control

## OC(Cc1nc2ccccc2nc1CC(O)(c1ccccc1)c1ccccc1)(c1ccccc1)c1ccccc1
[7]
  T/C: 90 % of control
[8]
  T/C: 98 % of control
[9]
  T/C: 106 % of control

## C[C@]12CC[C@H]3[C@@H](CC[C@H]4N(CCCl)CCC[C@]34C)[C@@H]1CC[C@@H]2O
dose: 12.5 mg/kg/injection, schedule: Q01DX001 (ip), vehicle: saline
  T/C: 105 % of control
dose: 25.0 mg/kg/injection, schedule: Q01DX001 (ip), vehicle: saline
  T/C: 109 % of control

## Cc1cccc(C)c1NC(=S)N(C)C
dose: 3.13 mg/kg/injection, schedule: Q01DX009 (ip), vehicle: saline with Tween-80
  T/C: 100 % of control
dose: 6.25 mg/kg/injection, schedule: Q01DX009 (ip), vehicle: saline with Tween-80
  T/C: 100 % of control
dose: 12.0 mg/kg/injection, schedule: Q01DX001 (ip), vehicle: Klucel (hydroxypropylcellulose) (HPC)
  T/C: 109 % of control
[10]
  T/C: 95 % of control
dose: 25.0 mg/kg/injection, schedule: Q01DX001 (ip), vehicle: Klucel (hydroxypropylcellulose) (HPC)
  T/C: 100 % of control
dose: 50.0 mg/kg/injection, schedule: Q01DX001 (ip), vehicle: Klucel (hydroxypropylcellulose) (HPC)
  T/C: 100 % of control
dose: 100.0 mg/kg/injection, schedule: Q04DX003 (ip), vehicle: saline
  T/C: 100 % of control

## S=P(N1CCOCC1)(N1CC1)N1CC1
dose: 2.5 mg/kg/injection, schedule: Q01DX010 (ip), vehicle: saline
  T/C: 109 % of control
dose: 20.0 mg/kg/injection, schedule: Q01DX010 (ip), vehicle: saline
  T/C: 155 % of control

## Cc1cc(C)nc(NC(N)=NCCc2ccccc2)n1
[10]
  T/C: 100 % of control
[11]
  T/C: 95 % of control
[7]
  T/C: 100 % of control

— PubChem BioAssay AID328 (DTP/NCI, 2004)
